Data as given in article PMC8485325, “Penetrating the Blood-Brain Barrier with New Peptide–Porphyrin Conjugates Having anti-HIV Activity” (Bioconjugate Chemistry, 2021).
Read-outs that look alike come from different tables or passages of the source. Ends that are not written are not given here.

Experiments:
bEnd.3 cell monolayers [1] = tested on: bEnd.3 cell monolayers
Protocol: (§1) Figure 4 PPCs translocation across a bEnd.3 in vitro BBB model. (A) bEnd.3 in vitro BBB model transwell system. The insert, or apex, corresponds to the blood side, while the base (bottom chamber) corresponds to the brain side. (B) After formation of a monolayer, 10 μM of each conjugate was added to the apical side of the tissue culture inserts. After incubation for 24 h, samples from the basolateral side were collected, and the percentage of translocation of each conjugate (black) was calculated. FD4 permeability (gray) was measured to determine monolayer integrity post-PPCs translocation.
After 24 h incubation with conjugates, an in vitro integrity assay was performed.[19] Briefly, cells were washed twice with PBS and once with DMEM medium without phenol red. Then, previously diluted 4 kDa fluorescein isothiocyanate-dextran (FD4) (Sigma-Aldrich, Spain) in DMEM without phenol red to an absorbance of 0.1 was added to the apical side and incubated for 2 h. Samples were collected from the apical and basolateral side, and fluorescence intensity was measured with λext = 493 nm and λem = 520 nm, using a Varioskan Lux plate reader. The integrity of the barrier was determined as follows: [drawing 2] 2 where Fi is the recovered fluorescence intensity, Fcells is the recovered fluorescence intensity from cells without FD4 incubation, FFD4 is the fluorescence intensity of total FD4 initially added to the transwell apical side, and FMedium is the fluorescence intensity of DMEM medium without phenol red.

bEnd.3 cell monolayers [2] = assay: In vitro BBB translocation assay (bEnd.3 transwell model)
From the text: Assessment of PPC efficacy in BBB translocation was done in a transwell setup (Figure 4A) using bEnd.3 cell monolayers.[44] The bEnd.3 in vitro BBB model consists of a monolayer of cells expressing a range of essential BBB transporters, also bearing the low permeability characteristic of the BBB, suitable for this study.[44]−[46]
as §1
An in vitro BBB model consisting of endothelial cells growing on the apical side of a porous membrane was used.[46] bEnd.3 cells (ATTCC-CRL2299) were cultured as a monolayer on T-flasks in DMEM supplemented with 10% fetal bovine serum (FBS), 1% penicillin/streptomycin. Cells were grown in a humidified atmosphere of 5% CO2 at 37 °C (MCO-18AIC (UV), Sanyo, Japan) with the medium changed every other day. Cells were allowed to grow until confluence in a culture T-flask, and then carefully harvested with trypsin-EDTA and seeded (3500 cells/well) onto fibronectin-coated tissue culture 24-well inserts (transparent polyester membrane with 1.0 μm pores) (BD Falcon, USA). The medium was changed every other day for 10 days, after which cells were washed twice with 1× PBS and once with DMEM medium without phenol red. Next, conjugates diluted in DMEM without phenol red to a final concentration of 10 μM were added to the apical side of the in vitro BBB model (Figure 4A). Experiments were performed on different days using independently grown cell cultures.
The translocation of conjugates was determined by fluorescence intensity (λexc = 380 nm and λem = 625 nm for MP conjugates, and λexc = 380 nm and λem = 675 nm for PP conjugates). P3-CF and P5-CF, peptides labeled with 5(6)-Carboxyfluorescein (CF), were used as positive translocation controls (λexc = 492 nm and λem = 517 nm). After 24 h incubation, samples from the apical and basolateral side were collected and analyzed. Fluorescence was measured using a Varioskan Lux plate reader (Thermo Scientific, MA, USA). The percentage (%) of translocation was calculated using the following equation: [drawing 1] 1 where Fi is the recovered fluorescence intensity, Fcells is the recovered fluorescence intensity from cells without the conjugate, and Fconjugate is the fluorescence intensity of total peptide initially added to the transwell apical side.

HIV-1NL4-3 = assay: In vitro inhibition of HIV-1NL4-3 infection of TZM-bl cells (luciferase reporter); assay type: cell-based
Protocol: Viral supernatants harvested from pNL4-3-transfected HEK293T cells were titered through the Reed-Muench method[56] based on HIV-1NL4–3 infectivity against TZM-bl cell cultures. TZM-bl cells were seeded at 2 × 10^4 cells/well in tissue culture-treated 96-well microplates from Corning (Corning, NY, USA), and incubated for 24 h. Cells were then incubated with 2-fold serial dilutions of viral supernatants for 3 h, after which the supernatant was replaced with fresh complete medium. After 45 h, TZM-bl cell infection was quantified through luciferase reporter-gene expression levels, under the control of an HIV-1 TAT-dependent LTR promoter[57] using the Luc-Screen luciferase chemiluminescence detection system. Luminescence was measured in an Infinite M200 microplate reader from Tecan (Männedorf, Switzerland). […] Titration was performed with at least four replicates to allow accurate estimation of TCID50 in viral supernatants.
The inhibitory activity of conjugates on HIV-1NL4–3 entry into TZM-bl cells was evaluated as previously described.[58] TZM-bl cells were seeded at 2 × 10^4 cells/well in tissue culture-treated 96-well microplates and incubated for 24 h. HIV-1NL4–3 viral supernatants (100 or 10 TCID50/well) were then incubated for 1 h with 2-fold serial dilutions of either nonconjugated peptide and porphyrins or conjugates, after which the infection mixture was added to TZM-bl cells. Untreated cells (in the absence of peptide–porphyrin conjugate) were used as control. Virions were incubated with cells for 3 h, after which cells were washed to remove unbound virions and new medium was added. After 45 h, infection was quantified by the Luc-Screen chemiluminescence assay. Measurements were performed in an Infinite M200 microplate reader. […] At least three independent experiments were performed for each assay.

[3] = Cell viability assay (CellTiter-Blue); assay type: cell-based, murine; conditions: for CC50 at 24 h: mouse
Protocol: (§2) bEnd.3 cells were plated in fibronectin precoated 96-well flat-bottom clear black polystyrene plate (Corning, New York, USA) as previously described. Cells were then cultured in complete medium at 37 °C in a 5% CO2 atmosphere, with medium replaced every 2 days. […] Viability was evaluated by the CellTiter-Blue assay (Promega, Wisconsin, USA), based on resazurin reduction into highly fluorescent resorufin by metabolically active cells. By distinguishing metabolic from nonmetabolic cells, cytotoxicity can be indirectly determined. After incubation, cells were washed with PBS, pH 7.4, and 15 μL of CellTiterBlue reagent in 100 μL of complete medium was added to the cells and incubated for 1.5 h at 37 °C in 5% CO2. Fluorescence was measured at 590 nm, with excitation at 560 nm, using an Infinite F200 plate reader (Tecan, Switzerland). Complete medium and medium containing 0.25% Triton X-100 were used as positive and negative controls (100% and 0% viability), respectively. Cell viability (%) was determined using the following equation: [drawing 5] 5 where […] is the fluorescence emission of conjugate-treated cells, Fnontreated is the fluorescence emission of the control nontreated cells, and Fblank is the fluorescent emission of CellTiter reagent in complete medium without cells.

human erythrocytes = assay: Hemolysis assay; assay type: cell-based
Protocol: Plates were incubated for 1 h at 37 °C with 100 rpm stirring, then centrifuged for 5 min at 4000 rpm, 4 °C, and supernatants were transferred to a 96-well flat-bottom polystyrene plate (Corning). Hemolysis was assessed by hemoglobin (Hb) release, measured by absorbance at 415 nm in a Varioskan LUXTM microplate reader (Thermo Fisher Scientific, Inc.). As porphyrin and Hb spectra are partially overlapping, to exclude porphyrin interference in Hb quantification a blank reading of each PPC (no hRBCs, TN buffer +1% DMSO) was subtracted from each measurement. TN buffer (+1% DMSO, no conjugate) and hRBCs with 1% Triton X-100 were used as negative and positive controls, respectively. Hemolysis (%) was determined using the following equation: [drawing 6] 6 where Abstreated is the absorbance of hRBC treated with the conjugates, Absconjugate is the absorbance from each conjugate concentration without hRBCs, AbsTriton is the absorbance of Triton X-100 treated hRBCs, and Absbuffer is the absorbance of TN buffer alone. HC50 values were determined by GraphPad Prism 8 software using a log(inhibitor) vs normalized response (variable slope). Experiments were performed using 3 different blood donors.

TZM-bl cells = assay type: cell-based
Protocol: TZM-bl Cell Viability Studies
The cytotoxic effects of each PPC on TZM-bl cell cultures were assessed to ensure that HIV inhibition was a result of the compounds effect on the virus and not on the host cells used in the assay. A resazurin reduction fluorometric assay was performed. Resazurin, the active compound in alamarBlue®, is a blue dye that can be reduced to a pink fluorescent intermediate, resorufin, as a result of cell metabolic activity.6 TZM-bl cells were seeded at 2x10^4 cells/well in tissue culture-treated 96-well microplates and incubated for 24 h. Cells were then incubated with serial dilutions (2-fold) of single peptide and porphyrins, or PPC, for 3 h, after which the mixture was replaced with fresh complete medium. Untreated cells (in the absence of peptide-porphyrin combinations) were used as a control. After 42 h, media was replaced with alamarBlue® reagent and incubated for an additional 3 h. Resazurin reduction was quantified by resorufin fluorescent emission intensity, measured in an Infinite M200 microplate reader. Fluorescence emission intensity was collected at 590 nm, using a fixed λ exc of 560 nm. Excitation and emission slits were 9 and 20 nm, respectively. Cell viability was calculated through the following formalism: […]
where I EI corresponds to the resorufin fluorescence emission intensity in the presence of EIs or combination, I control to the fluorescence emission intensity in the absence of EIs and I background to the background fluorescence emission from the non-reduced […]
P5, P4-MP, MP-L-P3 and P4-L-M - are presented here.
TZM-bl cell viability on the concentration range tested.
(1 picture or pasted object on this page, not shown here)
Figure S7. PPCs cytotoxic effects against TZM-bl cells. A resazurin reduction fluorometric assay, dependent on the cell metabolic activity, was used. Cell viability, normalized to the control in the absence of PPC, was measured against three concentrations of each individual PPC: MP-P3 (black), MP-P5 (white), P4-MP (red), MP-L-P3 (blue) and P4-L-MP (green).

bEnd.3 cells = assay: Cell viability assay (CellTiter-Blue); assay type: cell-based, murine
Protocol: as §2

Compound: O=C(O)CN(CCOCCOCCN(CC(=O)O)CC(=O)O)CC(=O)O [EGTA, reference compound]
- % Base (RFI), FD4 Permeability (monolayer integrity post-translocation) (bEnd.3 cell monolayers [1]): 26.8%

Compound: CCC1=C(C)c2cc3[nH]c(cc4nc(cc5[nH]c(cc1n2)c(C)c5CCC(=O)O)C(CCC(=O)O)=C4C)c(C)c3CC [MP, mesoporphyrin IX, reference compound]
- BBB translocation (in words) (bEnd.3 cell monolayers [2]; bEnd.3 monolayer in vitro model): translocated the monolayer
- IC50 (HIV-1NL4-3; Human immunodeficiency virus 1, 100 TCDI50 per well, TZM-bl cells, no-light, read-out: IC50 HIV inhibition, 100 TCDI50): > 50 µM
- CC50 at 24 h ([3]; bEnd.3 cells, 24 h, 6.25–50 μM range): > 50 µM
- HC50: 50% lytic concentration for human erythrocytes (human erythrocytes; 1 h at 37 °C, 0.1–50 μM range): >50 µM

Compound: C=CC1=C(C)c2cc3[nH]c(cc4nc(cc5[nH]c(cc1n2)c(C)c5CCC(=O)O)C(CCC(=O)O)=C4C)c(C)c3C=C [PP, protoporphyrin IX, reference compound]
- BBB translocation (in words) (bEnd.3 cell monolayers [2]): translocated the monolayer
- % Base (RFI), Translocation (bEnd.3 cell monolayers [2]; mouse, 24 h, 10 μM): 38.3%
- IC50 (HIV-1NL4-3; Human immunodeficiency virus 1, TZM-bl, read-out: IC50 HIV inhibition, 100 TCDI50): > 50 µM
- % Base (RFI), FD4 Permeability (monolayer integrity post-translocation) (bEnd.3 cell monolayers [1]; mouse, 2 h, 10 μM): 8.7%
- CC50 at 24 h [3]: > 50 µM
- HC50: 50% lytic concentration for human erythrocytes (human erythrocytes; human, 1 h, pH 7.4): >50 µM

Compound: H-AGILKRW-NH2 [P3, AGILKRW-amide, reference compound]
- CC50 ([3]; 24 h, 6.25–50 μM range): > 50 µM
- HC50: 50% lytic concentration for human erythrocytes (human erythrocytes; 1 h at 37 °C, 0.1–50 μM range): >50 µM

Compound: H-SGTQEEY-NH2 [P5, SGTQEEY-amide, reference compound]
- CC50 [3]: > 50 µM
- HC50: 50% lytic concentration for human erythrocytes (human erythrocytes; red cells of human, 1 h): >50 µM

Compound: H-VQQLTKRFSL-NH2 [P1, reference compound]
- CC50 ([3]; 24 h, 6.25–50 μM range): > 50 µM
- HC50: 50% lytic concentration for human erythrocytes (human erythrocytes; 1 h at 37 °C, 0.1–50 μM range): >50 µM

Compound: MP-P3: mesoporphyrin IX coupled to the N-terminal amino group of peptide P3 (AGILKRW-amide) ({mesoporphyrin IX}-AGILKRW-NH2)
- IC50 (HIV-1NL4-3; 10 TCDI50 per well (approximate physiological conditions of HIV brain infection), TZM-bl cells, read-out: IC50 HIV inhibition, 10 TCDI50): 1.38 ± 1.1 µM
- IC50 (HIV-1NL4-3; 100 TCDI50 per well, TZM-bl cells, no-light, read-out: IC50 HIV inhibition, 100 TCDI50): 16.1 ± 1.3 µM
- % Base (RFI), FD4 Permeability (monolayer integrity post-translocation) (bEnd.3 cell monolayers [1]): 10.2%
- TZM-bl cell viability (in words) (TZM-bl cells): did not alter significantly
- CC50 (bEnd.3 cells): 48.2 µM

Compound: P4-PP: protoporphyrin IX coupled to the Lys side-chain NH2 group of peptide P4 (AGILKRWK-amide) (AGILKRWK-NH2; also: protoporphyrin IX on a Lys side chain, Lys not given here)
- % Base (RFI), FD4 Permeability (monolayer integrity post-translocation) (bEnd.3 cell monolayers [1]): 9.9%
- CC50 (bEnd.3 cells): > 50 µM

Compound: P6-MP: mesoporphyrin IX coupled to the C-terminal Lys side chain of peptide P6 (SGTQEEYK-amide) (SGTQEEYK(mesoporphyrin IX)-NH2)
- CC50 (bEnd.3 cells; read-out: CC50: 50% cytotoxic concentration toward bEnd.3 cells, 24 h, 6.25–50 μM range): > 50 µM
- HC50: 50% lytic concentration for human erythrocytes (human erythrocytes; 1 h at 37 °C, 0.1–50 μM range): >50 µM

Compound: PP-P3: protoporphyrin IX coupled to the N-terminal NH2 group of peptide P3 (AGILKRW-amide) ({protoporphyrin IX}-AGILKRW-NH2)
- % Base (RFI), FD4 Permeability (monolayer integrity post-translocation) (bEnd.3 cell monolayers [1]): 7.2%
- CC50 (bEnd.3 cells): > 50 µM
